Molecular target: human HIF-PHD2 (Homo sapiens (Human), UniProt Q9GZT9)
Test: HIF-PHD2 inhibition assay (hydroxylation of HIF-1α peptide, time resolved fluorescence)
Assay type: biochemical
Conditions: FLAG-tagged full length PHD2; 0.2 μM 2-oxoglutarate, 0.5 μM HIF-1α peptide; 45 minutes at room temperature
Protocol: To each well of a 384-well plate, 1 μL of test compounds in DMSO (final concentration ranging from 0.3 nM to 10 uM) were added into 20 μl of assay buffer (50 mM Tris pH 7.4/0.01% Tween-20/0.1 mg/ml bovine serum albumin/10 μM ferrous sulfate/1 mM sodium ascorbate/20 μg/ml catalase) containing 0.15 μg/ml FLAG-tagged full length PHD2 expressed in and purified from baculovirus-infected Sf9 cells. […] Purif.

Sequence of human HIF-PHD2 (Q9GZT9 whole entry): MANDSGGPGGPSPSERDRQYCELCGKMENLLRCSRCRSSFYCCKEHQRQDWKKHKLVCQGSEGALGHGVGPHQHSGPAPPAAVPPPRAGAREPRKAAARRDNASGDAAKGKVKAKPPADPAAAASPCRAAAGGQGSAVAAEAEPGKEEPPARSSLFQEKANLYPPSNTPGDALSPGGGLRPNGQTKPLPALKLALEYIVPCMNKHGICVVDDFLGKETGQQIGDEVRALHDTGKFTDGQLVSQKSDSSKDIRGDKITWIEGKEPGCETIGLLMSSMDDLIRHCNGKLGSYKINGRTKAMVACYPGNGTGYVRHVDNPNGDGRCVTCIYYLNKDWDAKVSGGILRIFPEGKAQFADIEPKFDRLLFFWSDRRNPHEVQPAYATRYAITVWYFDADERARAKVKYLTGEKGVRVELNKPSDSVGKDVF

| Structure (SMILES) | IC50 |
| --- | --- |
| O=C(O)CNC(=O)c1c(O)c2c(n(-c3ccc(-c4ccc(OC(F)(F)F)cc4)cc3)c1=O)CSC2 [Example 12] | 10 nM |
| O=C(O)CNC(=O)c1c(O)c2c(n(-c3ccc(Br)cc3)c1=O)CSC2 [Example 11, 2-(1-(4-Bromophenyl)-4-hydroxy-2-oxo-1,2,5,7-tetrahydrothieno[3,4-b]pyridine-3-carboxamido)acetic acid] | 8.8 nM |

— patent publication US10208060B2, “Inhibitors of HIF prolyl hydroxylase” (Merck Sharp & Dohme Corp., priority 2014, dated 2019)
